Assay results published in PubChem BioAssay (NCI).
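Here, GI50 denotes the concentration required for 50% inhibition of growth. TGI is the concentration that stops growth completely.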

Legend:
Experiment in all cases: NCI tumour cell line growth inhibition, 384-well format
RPMI-8226 leukemia = tested on: RPMI-8226 leukemia
SK-MEL-2 melanoma = tested on: SK-MEL-2 melanoma
UO-31 renal = tested on: UO-31 renal
HOP-62 NSCLC = tested on: HOP-62 NSCLC
KM12 colon = tested on: KM12 colon
DU-145 prostate = tested on: DU-145 prostate
CCRF-CEM leukemia = tested on: CCRF-CEM leukemia
TK-10 renal = tested on: TK-10 renal
HOP-92 NSCLC = tested on: HOP-92 NSCLC
786-0 renal = tested on: 786-0 renal
M14 melanoma = tested on: M14 melanoma
RXF 393 renal = tested on: RXF 393 renal
MDA-MB-468 breast = tested on: MDA-MB-468 breast
MDA-MB-435 melanoma = tested on: MDA-MB-435 melanoma
A498 renal = tested on: A498 renal
OVCAR-5 ovarian = tested on: OVCAR-5 ovarian
CAKI-1 renal = tested on: CAKI-1 renal
IGROV1 ovarian = tested on: IGROV1 ovarian
K-562 leukemia = tested on: K-562 leukemia
MOLT-4 leukemia = tested on: MOLT-4 leukemia
OVCAR-8 ovarian = tested on: OVCAR-8 ovarian
T-47D breast = tested on: T-47D breast
MALME-3M melanoma = tested on: MALME-3M melanoma
BT-549 breast = tested on: BT-549 breast
NCI-H322M lung = tested on: NCI-H322M lung
NCI-H23 lung = tested on: NCI-H23 lung
MDA-MB-231 breast = tested on: MDA-MB-231 breast
SW-620 colon = tested on: SW-620 colon
SN12C renal = tested on: SN12C renal
COLO 205 colon = tested on: COLO 205 colon
UACC-62 melanoma = tested on: UACC-62 melanoma
NCI-H460 NSCLC = tested on: NCI-H460 NSCLC
A549 NSCLC = tested on: A549 NSCLC
NCI/ADR-RES ovarian = tested on: NCI/ADR-RES ovarian
LOX IMVI melanoma = tested on: LOX IMVI melanoma
OVCAR-3 ovarian = tested on: OVCAR-3 ovarian
PC-3 prostate = tested on: PC-3 prostate
U251 glioblastoma = tested on: U251 glioblastoma
ACHN renal = tested on: ACHN renal
SF-268 CNS = tested on: SF-268 CNS
OVCAR-4 ovarian = tested on: OVCAR-4 ovarian
HL-60(TB) leukemia = tested on: HL-60(TB) leukemia
EKVX NSCLC = tested on: EKVX NSCLC
SNB-19 CNS = tested on: SNB-19 CNS
NCI-H522 lung = tested on: NCI-H522 lung
HCC-2998 colon = tested on: HCC-2998 colon
SF-295 CNS = tested on: SF-295 CNS

SMILES: COC(=O)c1ccc([C@H]2c3[nH]c4ccccc4c3C[C@H](C(=O)OC)N2C(=O)CCl)cc1
- GI50 (RPMI-8226 leukemia): 14.2 nM
- TGI (RPMI-8226 leukemia): 28.4 nM
- GI50 (SK-MEL-2 melanoma): 51.7 nM
- TGI (SK-MEL-2 melanoma): 185 nM
- GI50 (UO-31 renal): < 10 nM
- TGI (UO-31 renal): < 10 nM
- GI50 (HOP-62 NSCLC): 10.7 nM
- TGI (HOP-62 NSCLC): 35.5 nM
- GI50 (KM12 colon): 18.3 nM
- TGI (KM12 colon): 37.8 nM
- GI50 (DU-145 prostate): 336 nM
- TGI (DU-145 prostate): 1640 nM
- GI50 (CCRF-CEM leukemia): < 10 nM
- TGI (CCRF-CEM leukemia): 15 nM
- GI50 (TK-10 renal): 15.8 nM
- TGI (TK-10 renal): 33.6 nM
- GI50 (HOP-92 NSCLC): < 10 nM
- TGI (HOP-92 NSCLC): < 10 nM
- GI50 ([…]-0 renal): 10.4 nM
- TGI (786-0 renal): 25 nM
- GI50 (M14 melanoma): 51.2 nM
- TGI (M14 melanoma): 216 nM
- GI50 (RXF 393 renal): < 10 nM
- TGI (RXF 393 renal): 15.2 nM
- GI50 (MDA-MB-468 breast): < 10 nM
- TGI (MDA-MB-468 breast): 19.5 nM
- GI50 (MDA-MB-435 melanoma): 346 nM
- TGI (MDA-MB-435 melanoma): 1570 nM
- GI50 (A498 renal): 20.5 nM
- TGI (A498 renal): 43.8 nM
- GI50 (OVCAR-5 ovarian): 289 nM
- TGI (OVCAR-5 ovarian): 1580 nM
- GI50 (CAKI-1 renal): < 10 nM
- TGI (CAKI-1 renal): < 10 nM
- GI50 (IGROV1 ovarian): 14.2 nM
- TGI (IGROV1 ovarian): 27.5 nM
- GI50 (K-562 leukemia): 46.2 nM
- TGI (K-562 leukemia): 382 nM
- GI50 (MOLT-4 leukemia): 15.5 nM
- TGI (MOLT-4 leukemia): 29.4 nM
- GI50 (OVCAR-8 ovarian): 66.5 nM
- TGI (OVCAR-8 ovarian): 248 nM
- GI50 (T-47D breast): 58.2 nM
- TGI (T-47D breast): 764 nM
- GI50 (MALME-3M melanoma): 14.8 nM
- TGI (MALME-3M melanoma): 29 nM
- GI50 (BT-549 breast): 120 nM
- TGI (BT-549 breast): 246 nM
- GI50 (NCI-H322M lung): 1140 nM
- TGI (NCI-H322M lung): 2420 nM
- GI50 (NCI-H23 lung): < 10 nM
- TGI (NCI-H23 lung): 12 nM
- GI50 (MDA-MB-231 breast): 14.4 nM
- TGI (MDA-MB-231 breast): 28.6 nM
- GI50 (SW-620 colon): 199 nM
- TGI (SW-620 colon): 504 nM
- GI50 (SN12C renal): 466 nM
- TGI (SN12C renal): 1830 nM
- GI50 (COLO 205 colon): 238 nM
- TGI (COLO 205 colon): 1150 nM
- GI50 (UACC-62 melanoma): 19.3 nM
- TGI (UACC-62 melanoma): 41.6 nM
- GI50 (NCI-H460 NSCLC): 574 nM
- TGI (NCI-H460 NSCLC): 1940 nM
- GI50 (A549 NSCLC): 119 nM
- TGI (A549 NSCLC): 339 nM
- GI50 (NCI/ADR-RES ovarian): 25.1 nM
- TGI (NCI/ADR-RES ovarian): 102 nM
- GI50 (LOX IMVI melanoma): < 10 nM
- TGI (LOX IMVI melanoma): < 10 nM
- GI50 (OVCAR-3 ovarian): 14.3 nM
- TGI (OVCAR-3 ovarian): 28.8 nM
- GI50 (PC-3 prostate): 34.4 nM
- TGI (PC-3 prostate): 140 nM
- GI50 (U251 glioblastoma): 119 nM
- TGI (U251 glioblastoma): 399 nM
- GI50 (ACHN renal): < 10 nM
- TGI (ACHN renal): < 10 nM
- GI50 (SF-268 CNS): 19.5 nM
- TGI (SF-268 CNS): 42.3 nM
- GI50 (OVCAR-4 ovarian): < 10 nM
- TGI (OVCAR-4 ovarian): < 10 nM
- GI50 (HL-60(TB) leukemia): < 10 nM
- TGI (HL-60(TB) leukemia): 10.2 nM
- GI50 (EKVX NSCLC): < 10 nM
- TGI (EKVX NSCLC): 22.4 nM
- GI50 (SNB-19 CNS): 1300 nM
- TGI (SNB-19 CNS): 2590 nM
- GI50 (NCI-H522 lung): < 10 nM
- TGI (NCI-H522 lung): < 10 nM
- GI50 (HCC-2998 colon): 30.3 nM
- TGI (HCC-2998 colon): 177 nM
- GI50 (SF-295 CNS): 103 nM
- TGI (SF-295 CNS): 221 nM
